This note sets out measurements from patent US20120289492A1, “METHODS OF TREATING MITOCHONDRIAL DISORDERS USING METALLOPORPHYRINS” (priority 2009, published 2012).

“Also recorded” adds a separate entry of the source.

This assay has as its system forebrain of Sod2−/− mice. Kind of assay: Mitochondrial oxidative stress and bioenergetic indices in brain of Sod2−/− mice. It counts as in vivo. On the procedure: To determine whether AEOL11207 decreases mitochondrial dysfunction and corrects key bioenergetic parameters in Sod2−/− mice, activity was measured of the oxidant sensitive mitochondrial enzyme, aconitase and oxidant insensitive control, fumarase, ATP, 3-nitrotyrosine (3NT), a marker of oxidative damage to proteins, reduced coenzyme A (CoASH) which assesses the mitochondrial redox state and the activity of the sodium potassium ATPase (Na+-K+ ATPase). […] FIGS. 5A-5EC illustrate attenuation of aconitase inactivation (5A), ATP depletion (5B), 3NT formation ([…]), CoASH depletion (5D) and decreased Na+-K+ ATPase activity (5E) in Sod2−/− mice by AEOL11207 (5 mg/kg, s.c. beginning PND5, n=*p<0.05, #p<0.01).
Methods:3-nitrotyrosine (3-NT) measurement by HPLC 3-NT assay are performed with HPLC equipped electrochemical detector using methods as previously described in the literature. The potentials of the electrochemical detector are set at 180/240/350/500/600/670/810/830 mV. Analyte separation is conducted on a TOSOHAAS (Montgomeryville, Pa.) reverse-phase ODS 80-TM C-18 analytical column (4.6 mm×[…]; 5 µm particle size). A two-component gradient elution system was used with component A of the mobile phase composed of 50 mM sodium acetate pH 3.2, and component B composed of 50mM sodium acetate and 40% methanol. The following gradient elution profile was used: 0-25 min, 100% A; 25-35 min, linear ramp to 50% B; 35-40 min, isocratic 50% B; 40-45 min, linear ramp to 100% A; 45-50 min, isocratic 100% A at a flow rate of 0.6 ml/min. 3-NT was expressed as a ratio of 3-NT to tyrosine.
Measurement of AMP, ADP and ATP: The levels of AMP, ADP and ATP are quantified by HPLC-UV set at 258 nm following previous described. Analyte are separated by […], […] C-18 reversed-phase column. Mobile phase is composed of 50 mM KH2PO4, 10% methanol, 3 mM TBAS and adjusted to pH 6.0 and flow rate set at 0.8 ml/min.
Aconitase and fumarase activity assay: Aconitase and fumarase activity are measured in mitochondrial fraction which isolated as previously described. Briefly, brain tissues are homogenized with a Dounce tissue grinder (Wheaton, Millville, N.J.) in ice-cold mitochondrial isolation buffer (70 mM sucrose, 210 mM mannitol, 5 mM Tris HCl, 1 mM EDTA pH 7.4). After homogenization, the suspensions are centrifuged at 800 g for 10 minutes at 4° C., and the supernatants centrifuged at 17,000 g for 10 minutes at 4° C. The pellets are washed by mitochondrial isolation buffer and centrifuged at 17,000 g for 10 minutes at 4° C. again. Aconitase activity is measured spectrophotometrically following previous described by monitoring the formation of cis-aconitate from isocitrate at 240 nm in 50 mM Tris HCl, pH 7.4, containing 0.6 mM MnCl2 at 25° C. Fumarase activity is measured by monitoring the increase in absorbance at 240 nm at 25° C. in a 1 ml reaction mixture containing 30 mM potassium phosphate, pH 7.4, 0.1 mM L-malate.
Isolation mitochondrial fraction Mitochondria were isolated from the forebrain of mice according to the previously described methods (Liang & Patel, (2006) Free Radic Biol Med 40, 316-22). In brief, the forebrain was homogenized with a Dounce tissue grinder (Wheaton, Millville, N.J.) in mitochondrial isolation buffer (70 mM sucrose, 210 mM mannitol, 5 mM Tris HCl, 1 mM EDTA; pH 7.4). The suspensions centrifuged at 800 g 4° C. for 10 min. The supernatants were centrifuged at 13000 g 4° C. for 10 min., pellets washed with mitochondrial isolation buffer and centrifuged at 13000 g 4° C. for 10 min. to obtain crude mitochondrial fractions. The purity of mitochondrial fractions has been confined by immunoblot analysis of cytochrome c oxidase (COX) (EC1.9.3.1) subunit IV and lactate dehydrogenase (LDH) (EC 1.1.1.27) in mitochondrial and cytosolic fractions. There is no mitochondria contamination in cytosolic fraction and about 5-10% cytosol contamination in mitochondrial fraction (Liang & Patel, (2006) Free Radic Biol Med 40, 316-22). […]

Where [1] appears, read: Sod2−/− mice, 5 mg/kg s.c. from PND5.

For the compound `COC(=O)c1c2nc(c(C(F)(F)F)c3ccc([n-]3)c(C(=O)OC)c3nc(c(C(F)(F)F)c4ccc1[n-]4)C=C3)C=C2.[Cl-].[Mn+3]` [AEOL11207], under setting [1], the “decreased CoASH levels” value is listed as “significantly attenuated” and the “increase in 3-nitrotyrosine (3NT) formation” value was “significantly attenuated”. Besides, the “attenuation of the depletion of ATP” value (forebrain homogenates of Sod2−/− mice, 15-16 days old) amounted to 50%. Moreover, the “decreased Na+-K+ ATPase activity” value (forebrain homogenates, Sod2−/− mice, 5 mg/kg s.c. from PND5, 5 mg/kg) is recorded as “significantly attenuated; also recorded: significantly restored”. In addition, the “decrease in ATP levels (ATP depletion)” value (forebrain, Sod2−/− mice, 5 mg/kg s.c. from PND5) is listed as “significantly attenuated”. Besides, the “decrease in aconitase activity (aconitase inactivation)” value (mitochondrial fractions, Sod2−/− mice, 5 mg/kg s.c. from PND5) is “significantly attenuated”.
